Laboratory results: patent publication US5627171A, “Sphingosine-1-phosphate/trimethylsphingosine composition” (Oncomembrane, Inc., priority 1994, dated 1997)
Where two headings read alike, the source gives them in different places.

How the values were obtained:
B16BL6 melanoma cells = test system: B16BL6 melanoma cells; set-up: key: +++: + graded effectiveness; ++: + graded effectiveness; + graded effectiveness; - not effective; conditions: cited from earlier work
platelet activation = test system: platelet activation; set-up: key: +++: + graded effectiveness; ++: + graded effectiveness; + graded effectiveness; - not effective; conditions: cited from earlier work
protein kinase C = test system: protein kinase C; set-up: key: +++: + graded effectiveness; ++: + graded effectiveness; + graded effectiveness; - not effective; conditions: cited from earlier work
BL6 cell line = assay: Spontaneous metastasis model: subcutaneous BL6 cells, lung colonization; type: in vivo; conditions: mice, BL6 cells s.c.; liposomes i.v. on days 5, 10, 15, 20, 25, 30; primary tumor excised day 21; assessed day 35
Experimental: As an example, mice were injected subcutaneously with the metastatic and invasive BL6 cell line (Hart et al., Amer. J. Path., 97, 587, 1979; Poote et al., Canc. Res., 42, 2770, 1982) (1×10^5 cells in 0.05 ml of Dulbecco-modified Eagle's medium). A single intravenous injection of the 10:1 liposomal TMS/Sph-1-P composition described hereinabove was administered on days 5, 10, 15, 20, 25 and 30. The primary tumor was excised on day 21 and lung colonization was assessed on day 35. […] Controls comprised liposomes containing TMS alone, liposomes containing Sph-1-P alone, liposomes containing medium or medium alone with no liposomes.
Then the instant composition encapsulated in liposomes is administered to the hosts, see FIG. 9A.
(§1) In either model, the number of lung tumor colonies is ascertained macroscopically and microscopically following a course of repeated liposome administration.

tumor cells = assay: Experimental metastasis model: intravenous injection of tumor cells, lung tumor colonies; type: in vivo; conditions: tumor cells i.v.; number of lung tumor colonies
Excerpt: as §1

[1] = preincubation with free derivative

Row | Compound | Inhibition of metastasis (B16BL6 melanoma cells; no footnote on formulation) | Inhibition of PA (platelet activation) | PKC inhibition (protein kinase C) | Inhibition of metastasis (B16BL6 melanoma cells; [1]) | Inhibition of metastasis (B16BL6 melanoma cells; liposomal formulation was used) | Lung colony number (lung colonization) (BL6 cell line) | Effect in the experimental metastasis model (tumor cells) | Inhibition of metastasis (B16BL6 melanoma cells; free derivative and liposomal formulation were used)
1 | CCCCCCCCCCCCCC#C[C@@H](O)[C@H](CO)[N+](C)(C)C [4-alkyn-TMS] | + | ++ | +++ |  |  |  |  | 
2 | CCCCCCCCCCCCCC(F)/C=C/[C@H](CO)[N+](C)(C)C (some centres unmarked) [5F-TMS] | +++ | +++ | +++ |  |  |  |  | 
3 | C[N+](C)(C)[C@@H](CO)[C@H](O)/C=C/CCCCCCCCCCCCC(=O)O [Carboxy TMS] |  | - | - | - |  |  |  | 
4 | CCCCCCCCCCCCCCC[C@@H](O)[C@H](CO)[N+](C)(C)C [DHTMS] |  | ++ | +++ |  | + |  |  | 
5 | COC(=O)CCCCCCCCCCCC/C=C/[C@@H](O)[C@H](CO)[N+](C)(C)C [Methylcarboxy TMS] |  | - | - | - |  |  |  | 
6 | C[N+](C)(C)[C@@H](CO)[C@H](O)c1ccccc1 [NTPS] |  | - | - | - |  |  |  | 
7 | CCCCCCCCCCCCC/C=C/[C@@H](O)[C@@H](N)COP(=O)(O)O [Sph-1-P, sphingosine-1-phosphate] |  |  |  |  |  | no different in effect from medium alone or liposomes containing medium only |  | 
8 | CCCCCCCCCCCCC/C=C/[C@@H](O)[C@H](CO)[N+](C)(C)C [TMS, N,N,N-trimethylsphingosine] |  | +++ | +++ |  |  |  | strong effect | +++
